Square brackets hold non-standard residues; d marks the D form. 2Nal = N[C@@H](Cc1ccc2ccccc2c1)C(=O)O

A short description of test [1]: tryptophan fluorescence measurement of peptide with or without liposome (LUV). The test is classed as binding. Particulars: for dependence of tryptophan fluorescence intensity on the relative amount of cholesterol in the liposome: LUVs containing cholesterol at 0%, 10%, 20%, 30% and 40%, FIG. 5; for tryptophan fluorescence intensity measured under LUV condition (ratio with or without liposome): 1 μM peptide, liposome 0.1 mg/ml; for tryptophan fluorescence intensity measured under LUV condition (ratio with or without liposome) / increase in fluorescence intensity in the lipid environment when compared to in aqueous solution: FIG. 4; for increase in fluorescence intensity in the lipid environment when compared to in aqueous solution: tryptophan fluorescence. The procedure:
Total 10 mg of lipid compound was prepared by mixing phosphatidylcholine (soybean) and the LUVs containing cholesterol at 0%, 10%, 20%, 30% and 40%. The lipid compound was dissolved in 2 mL of solution containing 2:1 volumes of chloroform and methanol. The solvent is removed by using distillation condensation device and yielding a thin lipid film in the flask. The lipid film is hydrated by adding 1 mL of tertiary distilled water. Liposomes of the same size were generated by extruding the solution through a […] filter for 5 times, and 0.1 μm polycarbonate filter for 5 times using a cylinder fitted with a high pressure regulator. The amount of cholesterol contained in the liposome was measured by using cholesterol Lab-assay kit.
Fluorescence Anisotropy was measured using AMINCO-Bowman Series Luminescence Spectrometer at 20° C. For the buffer system, 10 mM HEPES (N-2-Hydroxyethylpiperazine-N′-2-Ethanesulfonic Acid, pH 7.4) containing 140 mM NaCl, 1 mM EDTA (ethylenediaminetetraacetic acid) was used. The concentration of the peptide was 500 μM and was kept at 0° C. The fluorescence emission spectrum was monitored by adding […] of peptide with 499 μl buffer solution to a final concentration of 1 μM. Liposome was added to the above buffer and peptide mixture solution to the final concentration of 0.1 mg/ml. The ratio of the intensity was calculated by measuring the spectrum in the condition of with or without liposome.

Test [2] relates to macrophage cell line. The test can be described thus: cholesterol efflux assay in macrophage cells loaded with 3H-labeled cholesterol. The test is classed as cell-based, Human. Particulars: 20 μM peptide, 4 hr incubation. The method, then: The present inventors determined the calculated mass value of the Apo A-I mimic peptide and the actual mass value of the A-1 mimic peptide acquired following the synthesis and purification step (see Table 1). In addition, cholesterol efflux was analyzed to screen the peptides. Human macrophage cells were treated with ^3H radioisotope labeled cholesterol. Next, the cells were treated with each of the peptide prepared from above. The amount of high density lipoprotein (HDL) produced was analyzed by measuring the amount of intracellular cholesterol and extracellular cholesterol released from the macrophage. […] There was a significant increase in cholesterol efflux when phenylalanine was substituted with tryptophan or naphthylalanine (see FIG. 3).
In order to screen which of the peptide synthesized from Example 1 mimics the Apo A-I, cholesterol efflux assay was performed by treating the macrophage cell line with the peptides. In particular, DMEM (Dulbecco's Modified Eagle medium) containing penicillin-streptomycin and 10% FBS (Fetal Bovine Serum) was used as the cell culture medium. […] The culture medium and the cells were separated to measure the radioactivity using Liquid Scintillation Counter. The level of cholesterol efflux was determined by measuring the ratio of isotope labeled cholesterol remained in the cell and in the cell culture medium, respectively.

Take “Ac-DWFAKDYFKKAFVEEFAK (Ac-DWFAKDYFKKAFVEEFAK-NH2) [Sc-4F, negative control group of 4F, reference compound]”: the “dependence of tryptophan fluorescence intensity on the relative amount of cholesterol in the liposome” value in test [1] was “irrelevant to the concentration of cholesterol”.
Regarding “Ac-DWFKAFYDKVAEKFKEAF (Ac-DWFKAFYDKVAEKFKEAF-NH2) [4F, existing Apo A-I mimic peptide, first generation amphiphilic alpha helix peptide containing 4 phenylalanine, reference compound]”, in test [1], the “tryptophan fluorescence intensity measured under LUV condition (ratio with or without liposome)” value was “about 1.9” and the “dependence of tryptophan fluorescence intensity on the relative amount of cholesterol in the liposome” value is recorded as “irrelevant to the concentration of cholesterol”.
Consider “Ac-EWNal2KAFYDKVAEKFKEANal2 (Ac-EW[2Nal]KAFYDKVAEKFKEA[2Nal]-NH2; SMILES CC(=O)N[C@@H](CCC(=O)O)C(=O)N[C@@H](Cc1c[nH]c2ccccc12)C(=O)N[C@@H](Cc1ccc2ccccc2c1)C(=O)N[C@@H](CCCCN)C(=O)N[C@@H](C)C(=O)N[C@@H](Cc1ccccc1)C(=O)N[C@@H](Cc1ccc(O)cc1)C(=O)N[C@@H](CC(=O)O)C(=O)N[C@@H](CCCCN)C(=O)N[C@H](C(=O)N[C@@H](C)C(=O)N[C@@H](CCC(=O)O)C(=O)N[C@@H](CCCCN)C(=O)N[C@@H](Cc1ccccc1)C(=O)N[C@@H](CCCCN)C(=O)N[C@@H](CCC(=O)O)C(=O)N[C@@H](C)C(=O)N[C@@H](Cc1ccc2ccccc2c1)C(N)=O)C(C)C) [2s]”, for which the “increase in cholesterol efflux when compared to peptide 4F” value in test [2] is recorded as “about 300%”. Also, in test [1], the “tryptophan fluorescence intensity measured under LUV condition (ratio with or without liposome)” value is “about 4.3”, the “dependence of tryptophan fluorescence intensity on the relative amount of cholesterol in the liposome” value was “significant increase of fluorescence intensity according to the increased concentration of the cholesterol inside the liposome” and the “increase in fluorescence intensity in the lipid environment when compared to in aqueous solution” value was “about 4.30 fold”.
As for “Ac-EWFKAFYDKVAEKFKEAF (Ac-EWFKAFYDKVAEKFKEAF-NH2) [1a]”, in test [1], the “tryptophan fluorescence intensity measured under LUV condition (ratio with or without liposome)” value is recorded as roughly 2.1 and the “increase in fluorescence intensity in the lipid environment when compared to in aqueous solution” value is listed as “about 2.1 fold”.

These data come from patent publication US20120270771A1, “APOLIPOPROTEIN A-1 MIMIC PEPTIDES, AND THERAPEUTIC AGENT FOR TREATING HYPERLIPIDEMIA AND DISEASES RELATED TO HYPERLIPIDEMIA COMPRISING SAME” (SNU R&DB FOUNDATION, priority 2009, published 2012).
